Reference: EP0068563A2, “Heterocyclic acetic acid compounds and compositions for treating bone diseases” (THE PROCTER & GAMBLE COMPANY, priority 1981, dated 1983)

How the values were obtained:
Fetal rat bone = assay: PGE2 stimulated in vitro bone resorption in the fetal long bone system (45Ca release); assay type: cell-based; conditions: versus control cultures; for inhibition at 390 µM: concentration 0.39 mM; for inhibition at 1560 µM: concentration 1.56 mM
Description: Fetal rat bone was cultured in the medium described in this reference. Bone resorption was stimulated by addition of prostaglandin, PGE2, and measured by the release of previously incorporated ^45Ca into the medium and by changes in the total bone calcium content.
PGE2 Stimulated Bone Resorption in the Fetal Long Bone System

[1] = tested on: Weanling male Sprague-Dawley derived rats; assay: in vivo periosteal and endosteal bone apposition rates and endosteal resorption rates (tetracycline/DCAF double label, tibial sections); parameters: EBAR (endosteal bone apposition rate) / ERR (endosteal resorption rate): unit not given here; conditions: for ERR (endosteal resorption rate) / EBAR (endosteal bone apposition rate) / P BAR (periosteal bone apposition rate): subcutaneous daily, 10 days, rat tibia; for ERR (endosteal resorption rate): control 3.6; for EBAR (endosteal bone apposition rate): control 4.0; for P BAR (periosteal bone apposition rate): control 14.7
Description: The following test was used to establish in vivo periosteal and endosteal bone apposition rates and endosteal resorption rates. The test method is a modification of the method of Baylink, et al., J. Clin. Invest.
Weanling male Sprague-Dawley derived rats weighing 50-60 grams (Charles River Breeding Labs, Wilmington, Massachusetts) were allowed 2-3 days to adapt to the laboratory environment before receiving any treatment. Throughout the adaptation and experimental periods the animals were allowed free access to tap water and food (Purina Lab Rat Chow, Ralston Purina Company, St. Louis, Missouri).
On the first day of the experiment all animals were given a subcutaneous injection of tetracycline hydrochloride at a dose of 20 mg/kg to label the skeleton. Test compound and saline (control animals) treatments were also started on the first day of the experiment. They were given subcutaneously under skin flap where the rear legs join the body using alternating sides each day. Since these animals were rapidly growing, body weights were taken daily and dosage adjusted accordingly.
Seven days after the animals received tetracycline they were given a subcutaneous injection of (2,4 bis)N-N'-di (carboxymethyl)amino methylfluorescein (DCAF) at a dose of 20 mg/kg to provide a second skeletal label.
Ten days after treatments were initiated, the animals were sacrificed by carbon dioxide asphyxiation and their left and right tibias and femurs taken and placed in 70% ethanol until they were further processed.
The test comoounds were given as solutions preoared in distilled water, and the pH was adjusted to 7.4. Solution concentrations were adjusted so that constant volumes of 0.2 ml/100 grams of body weight could be maintained for all animals.
Dose volumes were […] of body weight.
DCAF, (2,4-bis)-N,N'di(carboxymethyl) amino methyl fluorescein, Nutritional Biochemicals Corporation, Cleveland, Ohio was given as a 1% solution in 2% sodium bicarbonate and 0.8% dextrose. This solution was filtered prior to administration to remove any undissolved particles. Dose volumes of the DCAF solution were 0.2 ml/100 grams of body weight.
The left tibiae were blocked stained with Villanueva's stain, embedded in methyl methacrylate and sectioned at 75-100 u. Cross sections were prepared from the shaft of the tibia where it is joined by the distal portion of the fibula.
These parameters were measured in tibial cross sections and in longitudinal sections through the proximal tibial epiphysis with a 5 mm micrometer which was superimposed optically over the section by placing it in the eyepiece of a microscope. Conversion of the values obtained to actual widths was established with a stage micrometer.
The width between fluorescent labels on the periosteal surface was established at 100x by making 4 measurements at 90. degree intervals around the circumference of the labeled area. Measurements were made from the middle of one label to the middle of' the next. A mean value was then established for each surface and multiplied times the conversion factor to obtain the actual distance in microns. Bone apposition rates were then calculated by dividing this value by the number of days over which the fluorescent labels were given (i.e. 7 days).
Endosteal bone apposition was established at 100x by making 4 measurements at equidistant points across the section from the bottom of the plate to the closest fluorescent label (the last label administered). A mean value was then established and multiplied times a conversion factor to obtain the actual distance in microns.
A mean value was then established and multiplied times a conversion factor to obtain the actual distance in microns. Bone resorption rates were calculated by dividing this value by number of days over which the experiment was conducted (i.e. 10 days).

SMILES	inhibition at 390 µM (Fetal rat bone) [%]	inhibition at 1560 µM (Fetal rat bone) [%]	ERR (endosteal resorption rate) ([1]; dose 5 uM)	EBAR (endosteal bone apposition rate) ([1]; dose 5 uM)	P BAR (periosteal bone apposition rate) ([1]; dose 5 uM)	ERR (endosteal resorption rate) ([1]; dose 16 uM)	EBAR (endosteal bone apposition rate) ([1]; dose 16 uM)	P BAR (periosteal bone apposition rate) ([1]; dose 16 uM)	bone resorption (conclusion in words) ([1]; summary of the rat test table)	ERR (endosteal resorption rate) ([1]; dose 80 uM)	EBAR (endosteal bone apposition rate) ([1]; dose 80 uM)	P BAR (periosteal bone apposition rate) ([1]; dose 80 uM)
COc1ccc2[nH]c(C(=O)O)cc2c1 [5-Methoxyindole-2-Carboxylic Acid]	47.5	80.1	–	–	–	–	–	–	–	–	–	–
O=C(O)Cc1nc2ccccc2[nH]1 [BMZAA, benzimidazole-2-acetic acid]	–	–	1.0	3.8	15.5	1.5	3.4	18.1	–	–	–	–
O=C(O)Cc1cc2ccccc2s1 [BTAA, benzothiophene-2-acetic acid]	–	–	1.2	3.5	16.0	0.9	3.9	18.1	–	–	–	–
O=C(O)c1cc2ccccc2s1 [BTCA, benzothiophene-2-carboxylic acid]	–	–	2.9	3.5	18.2	3.3	3.4	16.2	does not significantly reduce bone resorption	–	–	–
O=P(O)(O)C(Cl)(Cl)P(=O)(O)O [Cl2MDP, dichloro-methylene-diphosphonate]	–	–	–	–	–	1.3	3.2	14.8	–	0	3.1	14.8
O=C(O)Cc1cccs1 [Thiophene-2-Acetic Acid]	47.8	107	–	–	–	–	–	–	–	–	–	–
O=C(O)c1cccs1 [Thiophene-2-Carboxylic Acid, reference compound]	43	47.8	–	–	–	–	–	–	–	–	–	–
